Assay results as given in EP0032304B1, “Antibiotic compositions” (ELI LILLY AND COMPANY, priority 1979, dated 1981).
Counter-ions that a name gives are not always drawn. Like-named read-outs stand apart in the source and are kept apart here.

How the values were obtained:
[1] = 28 day weight gain and feed utilization trial in post weaned pigs; format: in vivo; conditions: 28 days; for Daily feed intake (Rel) / Daily gain (Rel) / Feed efficiency (Rel) / Final weight (Rel): comparison to negative controls (100), 100 ppm in feed; for Daily feed intake x̄ (kg) per animal / Daily gain x̄ (g) per animal / Feed efficiency x̄ (kg feed/kg gain) / Final weight x̄ (kg) per animal: post weaned pigs, 100 ppm in feed (combination 100 ppm of each); for Final weight x̄ (kg) per animal: mean of two like trials
Protocol: The trials were carried out in pens with 6 pigs per pen for 28 days. The pigs were of mixed sex having an average initial body weight of 12.89 kg and an average age of six weeks. The animals received water before and after feeding. The animals were fed twice daily with feed having the following composition.
The tylosin-apramycin combination was compared in the trials with tylosin alone and with apramycin alone. The antibiotics and the combination thereof were administered in the animal feed at a level of 100 ppm, and, in the case of the combination; at 100 ppm for each antibiotic.

E. coli = test: 21 day trial in weanling pigs: treatment and control of colibacillosis, weight gain, feed efficiency, diarrhoea; format: in vivo; conditions: for Diarrhoea index: score 1 (formed stools only) to 5 (liquid stools only), scored twice daily for 13 days and once on the 14th day, 110 ppm in feed; for Percent increase over controls: Reduction of diarrhoea / Percent increase over controls: Average daily weight gain / Percent increase over controls: Improved feed efficiency / Average daily feed / Average daily gain / Feed efficiency: weanling pigs, 21 days; for Percent increase over controls: Reduction of diarrhoea: difference in incidence as percentage of the control incidence; for Percent increase over controls: Average daily weight gain / Percent increase over controls: Improved feed efficiency: vs non-treated control group; for Average daily feed / Average daily gain / Feed efficiency: tylosin phosphate and apramycin sulfate at 110 ppm in feed, combination 110 ppm of each
Excerpt: Tylosin and apramycin were each administered in the feed at a level of 110 ppm. The antibiotic combination was likewise administered in the feed containing both antibiotics at the 110 ppm level. The results are shown as a percentage increase over a non-treated control group as calculated from the statistical evaluation of the data obtained in the study.
The efficacy of the tylosin-apramycin combination in the treatment and control of colibacillosis is shown by the results obtained in a 21 day trial with weanling pigs. The pigs were divided by weight into treatment and control groups of eight pigs. Each treatment was randomly assigned to three groups. The animals were fed a normal ration ad libitum with the treatment groups receiving feed containing 110 ppm of each antibiotic. Weight gains, feed efficiency and the incidence of diarrhoea were used to measure the response to treatment.
Ninety-six weanling pigs averaging 6.0 kg in weight were randomly allocated by weight into 12 pens of 8 pigs per pen. Four treatments were used in the study as follows: 1) Non-medicated controls; 2) apramycin fed at 110 ppm; 3) tylosin phosphate fed at 110 ppm; and 4) apramycin sulfate and tylosin phosphate both fed at 110 ppm. Each treatment was replicated through three pens.
The pigs were fed for 21 days ad libitum a ration of 20% protein corn-soy meal with some rolled oats included for roughage. Vitamins and minerals were added as needed to balance the ration. The only difference in the rations fed to all pigs was the inclusion of the appropriate antibiotic or antibiotic combination in each of the medicated rations. All feed was weighed as fed, with the feed remaining at the end of the weigh period, weighed and discarded. The pigs were weighed at the initiation of the study and weekly thereafter.
Diarrhoea scores were maintained on a pen basis. The scoring was done by the same person on a twice daily schedule for the first 13 days and once only on the 14th day. The scoring index was the same as that shown in footnote 2 of Table 5.

[2] = system: P. hemolytica strain 41 D; test: In vitro MIC and checkerboard titration of the combination; format: cell-based, Pasturella hemolytica; conditions: antibiotic alone
Protocol: This organism can cause pneumonia in cattle which in cases of severe infection can lead to death. […] The synergistic activity of the combination of the two antibiotics was determined by the "checkerboard" titration method. In this method two antibiotics are tested in serial dilutions and in all combinations of these dilutions together to find the concentrations of each antibiotic, both alone and in combination, that inhibit growth of the test microorganism. The nature of the interaction between the two antibiotics may be determined algebraically or geometrically. In the algebraic method, the concentration of each antibiotic in the combination that inhibits growth is expressed as a fraction of the concentration that produces the same effect when the antibiotic is used alone. When the sum of these fractions is one, the combination is additive, when the sum is less than one, the combination is synergistic; and when the sum is greater than one, the combination is antagonistic.
Below are shown the calculations using data obtained in the in vitro test of tylosin, apramycin and the combination of the two antibiotics against P. hemolytica.

M. Hyorhinis HH = test: Minimal inhibitory concentration vs mycoplasma in contaminated LLC-MK2 tissue culture; format: cell-based, Mycoplasma hyorhinis; conditions: for MIC: Mesomycoplasma hyorhinis
Protocol: (§1) Suspensions of monkey kidney cells, LLC-MK2, in medium 199 (Morgan et al., Proc. Soc. Exp. Biol. Med, 73, 1 1950), were inoculated with cultures of the indicated mycoplasma to achieve an inoculum concentration of 1.5xlO' organisms/ml of cell suspension. Control cultures and the mycoplasma positive cultures included in each test were incubated at 37°C for 3-5 days. After incubation the medium in all cultures was changed to 1% horse serum in Medium 199 containing 1.68 g of sodium bicarbonates per liter. The tissue cultures innoculated with mycoplasma (except for mycoplasma positive control cultures) were then treated with the indicated individual antibiotics alone or with the combination of antibiotics shown in Table 1. When combinations of antibiotics were tested equal amounts of the antibiotics were used.
(§2) Solutions of the antibiotics were made up in Medium 199 containing 1.68 g of sodium bicarbonate per liter of medium. The solutions were sterile filtered through a millipore filter having a 0.2 µm porosity and were stored at 4°C prior to use. Two fold dilutions of the antibiotic solutions were made and each antibiotic solution was added to separate cultures to determine the minimal inhibitory concentration. The medium in each culture was changed twice a week with fresh antibiotic solution at the same concentration being added at each medium change. After two weeks, medium changes were made without antibiotic for two more weeks. Samples of the cultures were taken before each medium change in the last two weeks and were cultured to determine the presence of mycoplasma.
Cell suspensions of LLC-MK2 (Monkey kidney cell line) in Medium 199 containing 1% house serum of 4 ml volumes in tissue culture flasks were inoculated with a 3 day old culture of Mycoplasma hyorhinis (5 x 10^8 organism per ml in Eaton's broth). Approximately 2 to 3% of the mycoplasma culture per volume of the cell suspension was used. After inoculation the cell suspensions were incubated at a temperature of 37°C for from three to five days. Control cultures were also made up in the same manner. After incubation the medium in the control cultures and the mycoplasma positive cultures was replaced with fresh Medium 199 containing 1.68 g of sodium bicarbonate and 1% horse serum. The cultures were then treated with solutions of tylosin, tobramycin, and with the combination of tylosin and tobramycin in Medium 199 containing 1.68 g of sodium bicarbonate per liter. Solutions of each individual antibiotic and of the combination at a concentration of 1000 µg/ml were prepared. […] By two-fold serial dilution solutions at various concentrations down to 0.39 µg/ml were prepared. Each of the antibiotic solutions was added to a separate flask containing the tissue culture.
The tissue culture medium was replaced in each flask twice a week and at each medium change for two weeks a fresh solution of the antibiotic at the same concentration was added. After two weeks fresh medium replacements were made for two more weeks without the addition of antibiotic. Samples of each culture were taken before each medium replacement and were cultured to determine the presence of mycoplasma.

M. Hyorhinis = test: as above; format: cell-based; conditions: LLC-MK2 tissue culture contaminated with M. Hyorhinis, combinations contain equal amounts of each antibiotic
Protocol: as §1, §2
Cell suspensions of LLC-MK2 (Monkey kidney cell line) in Medium 199 containing 1% house serum of 4 ml volumes in tissue culture flasks were inoculated with a 3 day old culture of Mycoplasma hyorhinis (5 x 10^8 organism per ml in Eaton's broth). Approximately 2 to 3% of the mycoplasma culture per volume of the cell suspension was used. After inoculation the cell suspensions were incubated at a temperature of 37°C for from three to five days. Control cultures were also made up in the same manner. […]

M. Hyorhinis HEK = test: as above; format: cell-based; conditions: Mesomycoplasma hyorhinis; LLC-MK2 tissue culture contaminated with M. Hyorhinis HEK (isolate from human embryonic kidney tissue); combinations contain equal amounts of each antibiotic
Protocol: as §1, §2

M. gallisepticum 36 F = test: as above; format: cell-based; conditions: LLC-MK2 tissue culture contaminated with M. gallisepticum 36 F (chicken mycoplasma), combinations contain equal amounts of each antibiotic
Protocol: as §1, §2

Swine L3F12F7 = test: as above; format: cell-based; conditions: Mycoplasmopsis arginini; LLC-MK2 tissue culture contaminated with Swine L3F12F7 (mycoplasma isolated from swine); combinations contain equal amounts of each antibiotic
Protocol: as §1, §2

M. gallisepticum 41313 = test: as above; format: cell-based; conditions: Mycoplasmoides gallisepticum; LLC-MK2 tissue culture contaminated with M. gallisepticum 41313 (chicken mycoplasma); combinations contain equal amounts of each antibiotic
Protocol: as §1, §2

[3] = 110 ppm of each antibiotic in feed
[4] = LLC-MK2 tissue culture contaminated with M. Hyorhinis HH (isolate from human heart tissue), combinations contain equal amounts of each antibiotic, read-out: Minimal inhibitory concentration
[5] = LLC-MK2 tissue culture contaminated with M. Hyorhinis HH (isolate from human heart tissue), combinations contain equal amounts of each antibiotic

Compound: CN[C@@H]1[C@@H](O[C@H]2O[C@H](CO)[C@@H](N)[C@H](O)[C@H]2O)OC2C[C@@H](N)[C@@H](O[C@H]3[C@H](O)[C@@H](O)[C@H](N)C[C@@H]3N)OC2[C@@H]1O (stereo partly drawn) [Apramycin]
- Daily feed intake (Rel) [1]: (100) percentage
- Daily gain (Rel) [1]: (110) percentage
- Feed efficiency (Rel) [1]: (92) percentage
- Final weight (Rel) [1]: (102) percentage
- Daily feed intake x̄ (kg) per animal [1]: 0,92 kg
- Daily gain x̄ (g) per animal [1]: 467 g
- Feed efficiency x̄ (kg feed/kg gain) [1]: 1,96 kg feed/kg gain
- Final weight x̄ (kg) per animal [1]: 25,62 kg
- Diarrhoea index (E. coli): 1.64
- Percent increase over controls: Reduction of diarrhoea (E. coli; [3]): 42.8%
- Percent increase over controls: Average daily weight gain (E. coli; [3]): 19.0%
- Percent increase over controls: Improved feed efficiency (E. coli; [3]): 10.3%
- Average daily feed (E. coli): 0.47 kg
- Average daily gain (E. coli): 0.29 kg
- Feed efficiency (E. coli): 1.64
- MIC [2]: 25 µg/mL
- MIC (M. Hyorhinis HH; [4]): 600 µg/mL

Compound: CO[C@@H]1[C@@H](O[C@@H]2O[C@H](C)[C@@H](O[C@H]3C[C@@](C)(O)[C@@H](OC(=O)CC(C)C)[C@H](C)O3)[C@H](N(C)C)[C@H]2O)[C@@H](CC=O)C[C@@H](C)[C@@H](O)/C=C/C=C/C[C@@H](C)OC(=O)C[C@H]1O [Leucomycin]
- Minimal inhibitory concentration (M. Hyorhinis HH; [5]): >400 µg/mL
- MIC (M. Hyorhinis HH; [4]): 400 µg/mL

Compound: NC[C@H]1O[C@H](O[C@H]2[C@H](O)[C@@H](O[C@H]3O[C@H](CO)[C@@H](O)[C@H](N)[C@H]3O)[C@H](N)C[C@@H]2N)[C@H](N)[C@@H](O)[C@@H]1O [Nebramycin Factor 5]
- Minimal inhibitory concentration (M. Hyorhinis HH; [5]): 200 µg/mL

Compound: CO[C@H]1C[C@H](O[C@H]2[C@H](C)[C@@H](O[C@@H]3O[C@H](C)C[C@H](N(C)C)[C@H]3O)[C@@H](C)C[C@@]3(CO3)C(=O)[C@H](C)[C@@H](O)[C@@H](C)[C@@H](C)OC(=O)[C@@H]2C)O[C@@H](C)[C@@H]1O [Oleandomycin]
- MIC (M. Hyorhinis HH; [4]): 400 µg/mL

Compound: NCC1OC(OC2C(N)CC(N)C(OC3OC(CO)C(O)C(N)C3O)C2O)C(N)CC1O (stereo not drawn) [Tobramycin sulfate]
- MIC (M. Hyorhinis HH; [4]): 200 µg/mL

Compound: NC[C@H]1O[C@H](O[C@H]2[C@H](O)[C@@H](O[C@H]3O[C@H](CO)[C@@H](O)[C@H](N)[C@H]3O)[C@H](N)C[C@@H]2N)[C@H](N)C[C@@H]1O [Tobramycin]
- MIC (M. Hyorhinis; Mesomycoplasma hyorhinis): 100 µg/mL
- MIC (M. Hyorhinis HEK): > 500 µg/mL
- MIC (M. gallisepticum 36 F; Mycoplasmoides gallisepticum): 100 µg/mL
- MIC (Swine L3F12F7): 50 µg/mL
- MIC (M. gallisepticum 41313): 200 µg/mL
- MIC (M. Hyorhinis HH; Example 4, procedure of Example 1, LLC-MK2 tissue culture, read-out: MIC): 200 µg/mL

Compound: CC[C@H]1OC(=O)C[C@@H](O)[C@H](C)[C@@H](O[C@@H]2O[C@H](C)[C@@H](O[C@H]3C[C@@](C)(O)[C@@H](O)[C@H](C)O3)[C@H](N(C)C)[C@H]2O)[C@@H](CC=O)C[C@@H](C)C(=O)/C=C/C(C)=C/[C@@H]1CO[C@@H]1O[C@H](C)[C@@H](O)[C@@H](OC)[C@H]1OC [Tylosin]
- MIC (M. Hyorhinis HEK): > 200 µg/mL
- MIC (Swine L3F12F7): 200 µg/mL
- Daily feed intake (Rel) [1]: (100) percentage
- Daily gain (Rel) [1]: (106) percentage
- Feed efficiency (Rel) [1]: (97) percentage
- Final weight (Rel) [1]: (102) percentage
- Daily feed intake x̄ (kg) per animal [1]: 0,92 kg
- Daily gain x̄ (g) per animal [1]: 449 g
- Feed efficiency x̄ (kg feed/kg gain) [1]: 2,07 kg feed/kg gain
- Final weight x̄ (kg) per animal [1]: 25,58 kg
- mean diarrhoea scores vs time in days (incidence of diarrhoea) (E. coli; plot in the accompanying drawing, 110 ppm of each antibiotic in feed): some effectiveness
- Diarrhoea index (E. coli): 2.10
- Percent increase over controls: Reduction of diarrhoea (E. coli; [3]): 26.4%
- Percent increase over controls: Average daily weight gain (E. coli; [3]): 29.7%
- Percent increase over controls: Improved feed efficiency (E. coli; [3]): 11.4%
- Average daily feed (E. coli): 0.51 kg
- Average daily gain (E. coli): 0.31 kg
- Feed efficiency (E. coli): 1.62
- MIC [2]: 50 µg/mL
- Minimal inhibitory concentration (M. Hyorhinis HH; [5]): 200 µg/mL

Compound: Gentamicin
- Minimal inhibitory concentration (M. Hyorhinis): 100 µg/mL

Compound: Magnamycin
- Minimal inhibitory concentration (M. Hyorhinis HH; [5]): >800 µg/mL

Compound: Neomycin
- Minimal inhibitory concentration (M. Hyorhinis): 100 µg/mL

Compound: Spiromycin
- Minimal inhibitory concentration (M. Hyorhinis HH; [5]): >800 µg/mL

Compound: Tylosin tartrate
- Minimal inhibitory concentration (M. gallisepticum 36 F): >800 µg/mL
- Minimal inhibitory concentration (M. Hyorhinis HH; [5]): 200 µg/mL
